{"source": "patent US20180289708A1", "about": "(priority 2015, published 2018)", "key": {"[1]": {"tested_on": "subjects with treatment-refractory insomnia", "experiment": "Dipyridamole in combination with melatonin for insomnia", "type": "in vivo, human", "procedure": "The melatonin dose ranged between 0.25 mg and 10 mg per pill."}, "[2]": {"experiment": "Solubility of dipyridamole in propylene glycol / water", "type": "physicochemical", "from_the_text": "(§1) Solubility of a compound is known to increase absorption and efficacy. In other exemplary embodiments of the invention, liquid formulations are provided in gel-caps."}, "[3]": {"tested_on": "subject with recurrent, non-streptococcal, non-specific sore throat", "experiment": "Treatment of non-specific recurrent sore throat", "type": "in vivo, human", "conditions": "person, 29 kg, 1 mg/day before sleep, followed 11 months", "procedure": "A person was treated with 1 mg taken before sleep and followed for 11 months in total. […] One mg dose was given based on a weight of 29 kg."}, "[4]": {"tested_on": "subject with androgenetic alopecia", "experiment": "Treatment of androgenetic alopecia", "type": "in vivo, human", "conditions": "person, 14 months in total", "procedure": "A person was treated with varying doses (2 and 4 mg) taken in the morning or evening, for periods of 2 weeks for each dose and continued with the optimal dose for 14 months in total."}, "[5]": {"tested_on": "subjects with erectile dysfunction", "experiment": "Erectile dysfunction treatment with low dose oral dipyridamole", "type": "in vivo, human", "from_the_text": "Some subjects had either failed or could not tolerate conventional treatments."}, "subjects with CLL": {"tested_on": "subjects with CLL", "experiment": "Treatment of chronic lymphocytic leukemia", "type": "in vivo, human", "conditions": "Subject 1 (person eleven), 2 mg, one month; from 25,000 (rising by 10%/month)"}, "[6]": {"tested_on": "subject with prostate cancer", "experiment": "Prostate cancer treatment", "type": "in vivo, human", "conditions": "person four, daily dose of 2 mg, 3 month period; from 19.1", "procedure": "person four was treated with 2 mg taken in the afternoon or evening and followed for 3 months."}, "[7]": {"tested_on": "human subjects with intractable insomnia", "experiment": "Insomnia treatment with low dose oral dipyridamole", "type": "in vivo"}, "[8]": {"experiment": "Storage stability of dipyridamole dissolved in propylene glycol", "type": "physicochemical", "conditions": "1 year of storage at room temperature", "from_the_text": "as §1"}, "subjects with xerostomia": {"tested_on": "subjects with xerostomia", "experiment": "Xerostomia treatment", "type": "in vivo, human", "conditions": "Subject 1 (person twelve), 2 mg", "procedure": "Subject 1 (person twelve) and Subject 2 (person three) were treated with varying doses (1, 2, 3, 4, 5 and 10 mg) taken in the morning or evening, for periods of 2 weeks for each dose then continued on optimal dose for 15 months in total."}, "[9]": {"tested_on": "subjects with keratoconjunctivitis sicca", "experiment": "Keratoconjunctivitis sicca treatment with low dose oral dipyridamole", "type": "in vivo, human", "conditions": "Subject 1 (person thirteen), 2 mg", "procedure": "Each of the three subjects was unresponsive to cyclosporine eye drops or to lubricating drops which are the conventional treatments.\nSubject 1 (person thirteen), Subject 2 (person twelve) and Subject 3 (person twelve) were treated with varying doses (2, 5 and 10 mg) taken before sleep or in the afternoon/evening hours, for initial periods of up to 2 weeks for each dose to establish optimal dosing, and followed for up to 12 months in total."}, "[10]": {"tested_on": "subjects with frequent viral infections (with upper respiratory symptoms)", "experiment": "Prevention and treatment of viral disease", "type": "in vivo, human", "procedure": "Subject 1 (person eight), Subject 2 (person two), Subject 3, and Subject 4 were treated with varying doses (2, 5 and 10 mg) taken at any time during the day, for periods of 2 weeks for each dose, and thereafter continuously for up to 2 years."}, "[11]": {"tested_on": "subject with cancer-related bone pain", "experiment": "Treatment of cancer-related bone pain", "type": "in vivo, human", "conditions": "person, 2 mg in the early evening", "procedure": "A person was treated with 2 mg taken in the early evening hours. The subject reported resolution of bone pain related to metastatic prostate cancer to the cervical spine within 4 days. The subject was previously dependent on the daily use of opiate pain medications for the past 6 months."}, "[12]": {"tested_on": "subjects with chronic rheumatic pain", "experiment": "Treatment of chronic rheumatic or fibromyalgia pain", "type": "in vivo, human", "procedure": "Subject 1 was treated with 2 mg taken once daily with the first daily dose of oxycodone. Subject 2 (person twelve) was treated with 2 mg or 5 mg taken once daily, in conjunction with oxycodone. Subject 3 (person five) was treated with 2 mg, 5 mg or 10 mg taken once daily with PERCOCET."}, "[13]": {"conditions": "cited from earlier work"}, "[14]": {"conditions": "IV or oral 20-50 mg, followed up to 60 hours"}}, "note": "Where two headings read alike, the source gives them in different places."}
{"smiles": "COc1ccc2[nH]cc(CCNC(C)=O)c2c1", "note": "[melatonin]", "values": [{"measurement": "prior response of insomnia to melatonin alone", "setting": "[1]; six subjects with treatment-refractory insomnia", "value": "unresponsive"}]}
{"smiles": "OCCN(CCO)c1nc(N2CCCCC2)c2nc(N(CCO)CCO)nc(N3CCCCC3)c2n1", "note": "[dipyridamole]", "values": [{"measurement": "solubility in propylene glycol", "setting": "[2]; propylene glycol", "value": "≥ 10", "unit": "mg per ml"}, {"measurement": "solubility in propylene glycol", "setting": "[2]; pure propylene glycol, dissolved at 5, 10 and 20 mg/mL", "value": "surprisingly soluble in propylene glycol"}, {"measurement": "solubility in water", "setting": "[2]; water", "value": "difficult to dissolve in water"}, {"measurement": "outcome on recurrent sore throat", "setting": "[3]", "value": "complete resolution of recurrent sore throat"}, {"measurement": "optimal dose for expansion of hairline, thicker hair, decreased hair loss and increased growth of chest and abdominal hair", "setting": "[4]", "value": 4, "unit": "mg"}, {"measurement": "optimal dose for complete restoration of erectile function", "setting": "[5]; Subject 1, daily at night", "value": 2, "unit": "mg"}, {"measurement": "time to restoration of erectile function", "setting": "[5]; Subject 3 (person seven), 2 mg", "value": "≤ 10", "unit": "days"}, {"measurement": "effect on erectile function at 10 mg daily", "setting": "[5]; Subject 3 (person seven), 10 mg daily", "value": "the beneficial effect was lost"}, {"measurement": "time to resolution of erectile dysfunction", "setting": "[5]; Subject 4, 2 mg", "value": "≤ 5", "unit": "days"}, {"measurement": "time to resolution of erectile dysfunction", "setting": "[5]; Subject 5, 2 mg", "value": "≤ 2", "unit": "weeks"}, {"measurement": "effect of 10 mg compared with 5 mg", "setting": "[5]; Subject 5, 10 mg", "value": "did not produce the same benefit as 5 mg"}, {"measurement": "effect when taken with food", "setting": "[5]; Subject 5, taken with food", "value": "2 mg was not that effective but 5 mg was"}, {"measurement": "white blood cell count after treatment", "setting": "subjects with CLL", "value": "18,000"}, {"measurement": "PSA (Prostate Specific Antigen) after treatment", "setting": "[6]", "value": 14}, {"measurement": "effect on insomnia at 10 mg or more (conclusion of example)", "setting": "[7]; 10 mg or more, 4 subjects", "value": "little or no effect"}, {"measurement": "benefit on insomnia at 10 mg", "setting": "[7]; Subject 1, 10 mg", "value": "negligible benefit compared to lower doses"}, {"measurement": "optimal dose for ensuring an excellent night's sleep", "setting": "[7]; Subject 1, oral, before sleep", "value": 2, "unit": "mg"}, {"measurement": "duration of undisturbed sleep", "setting": "[7]; Subject 2 (person nine), 2 mg", "value": "6-8 hours per night"}, {"measurement": "optimal dose for ensuring an excellent, undisturbed sleep", "setting": "[7]; Subject 2 (person nine), oral, before sleep", "value": 2, "unit": "mg"}, {"measurement": "potency after storage", "setting": "[8]", "value": "maintained its potency"}, {"measurement": "duration of occasionally recurring symptoms", "setting": "subjects with xerostomia", "value": "2 to 3", "unit": "h"}, {"measurement": "reduction in severity of occasionally recurring symptoms", "setting": "subjects with xerostomia; recurrence once every few weeks", "value": 70, "unit": "%"}, {"measurement": "outcome on dry eye symptoms", "setting": "[9]", "value": "complete relief of dry eye symptoms"}, {"measurement": "incidence of viral infections under treatment", "setting": "[10]; Subject 3, 2 mg once daily, previously 5-6 times yearly", "value": "1-2 times yearly"}, {"measurement": "time to resolution of infection symptoms", "setting": "[10]; Subject 3, 2 mg twice daily, previously 7-10 days", "value": "1 to 2", "unit": "days"}, {"measurement": "effect of 10 mg dose on viral infection", "setting": "[10]; Subject 3, 10 mg, one occasion", "value": "failed to deliver the same benefit as the 2 mg dose"}, {"measurement": "optimal dose for reducing incidence of viral infections", "setting": "[10]; Subject 3, once daily", "value": 2, "unit": "mg"}, {"measurement": "recurrence of infections", "setting": "[10]; Subject 4, 2 mg daily for 10 months, previously every 3-4 months", "value": "without any recurrence of infections"}, {"measurement": "time to complete relief of symptoms of severe viral infection", "setting": "[10]; Subject 4, 2 mg twice daily, upper respiratory symptoms plus viral conjunctivitis", "value": "1 to 2", "unit": "days"}, {"measurement": "prior response of insomnia to low dose dipyridamole alone", "setting": "[1]; six subjects, 1 or 2 mg daily", "value": "somewhat responsive"}, {"measurement": "time to resolution of bone pain related to metastatic prostate cancer to the cervical spine", "setting": "[11]", "value": "≤ 4", "unit": "days"}, {"measurement": "outcome on pain related to chronic fibromyalgia", "setting": "[12]; Subject 1, 2 mg once daily added to oxycodone", "value": "complete relief of pain"}, {"measurement": "time to complete weaning off oxycodone while maintaining pain relief", "setting": "[12]; Subject 2 (person twelve), 2 mg", "value": "≤ 3", "unit": "months"}, {"measurement": "pain relief at 10 mg", "setting": "[12]; Subject 2 (person twelve), 10 mg instead of 2 mg", "value": "negligible pain relief"}, {"measurement": "duration of low dose dipyridamole use after which Percocet was weaned off", "setting": "[12]; Subject 3 (person five), 2 mg", "value": 2, "unit": "months"}, {"measurement": "peak plasma concentration at steady state", "setting": "[13]; 75 mg q.i.d.", "value": 1.54, "unit": "µg/mL"}, {"measurement": "trough plasma concentration at steady state", "setting": "[13]; 75 mg q.i.d.", "value": 0.269, "unit": "µg/mL"}, {"measurement": "geometric mean peak plasma concentration at steady state", "setting": "[13]; 75 mg t.d.s.", "value": 1.86, "unit": "µg/mL"}, {"measurement": "geometric mean trough plasma concentration at steady state", "setting": "[13]; 75 mg t.d.s.", "value": 0.13, "unit": "µg/mL"}, {"measurement": "peak plasma concentration at steady state", "setting": "[13]; 100 mg q.i.d.", "value": 2.36, "unit": "µg/mL"}, {"measurement": "trough plasma concentration at steady state", "setting": "[13]; 100 mg q.i.d.", "value": 0.432, "unit": "µg/mL"}, {"measurement": "half-life, first phase of tri-exponential plasma decline", "setting": "[13]; IV only, 20-50 mg, followed up to 60 hours", "value": 5, "unit": "min"}, {"measurement": "half-life, second phase of tri-exponential plasma decline", "setting": "[13]; [14]", "value": 53, "unit": "min"}, {"measurement": "half-life, third phase of tri-exponential plasma decline", "setting": "[13]; [14]", "value": "600 to 720", "unit": "min"}, {"measurement": "time to peak plasma levels", "setting": "[13]; humans, following oral administration", "value": "1 to 3", "unit": "h"}, {"measurement": "distribution half-life", "setting": "[13]; humans, intravenous (IV) administration", "value": "about 25 minutes"}, {"measurement": "distribution half-life", "setting": "[13]; humans, oral administration", "value": "about 3 hours"}, {"measurement": "dose range in which dose linearity was demonstrated", "setting": "[13]; single dose administration", "value": "25 to 150", "unit": "mg"}]}
